According to patent US10758501B2, “Use of histone acetyltransferase inhibitor amidoximes as anti-proliferative agents” (Texas Woman's University, priority 2017, dated 2020):
Where “and” joins values, the source holds several entries; their conditions need not be identical. Identical values can stand only once. Like-named read-outs stand apart in the source and are kept apart here.

Tests used:
[1] = test system: HCT-116 (colorectal carcinoma); assay: MTS growth inhibition assay, HCT-116; type: cell-based, human
Description: In Table 1, the various compounds listed were tested for induction of death in various malignant human cell lines and were compared to the commercial HAT inhibitor garcinol (0.2-500 μM). Specifically, Table 1 describes the summary of the growth inhibitory effect (in μM) of nine novel bisamidoximes on six malignant cell lines, as measured by MTS assay. MTS assay is a colorimetric based cytotoxicity assay that determines the number of viable cells. The numbers in the table represent Growth Inhibition GI50 (±standard deviation), which is the concentration of the drug where 50% of the cells are killed. Garcinol, a known HAT inhibitor, was used as a positive control. The cell lines used were: HCT-116 (colorectal carcinoma), DU-145 (prostate carcinoma), SK-OV-3 (ovarian adenocarcinoma), HLF-a (lung epidermoid carcinoma), MCF-7 & MDA-MB-231 (breast adenocarcinoma) and NHDF (normal human dermal fibroblasts). The cells were treated with compounds JJMB 1-9 for 48 hrs (MCF-7 for 72 hrs) at various concentrations ranging from 0.2 μM to 500 μM. One-way ANOVA was performed to assess the differences between the groups. Differences in means between control and treatment groups were analyzed by post-hoc Dunnett's test, p<0.05. Data is reported as the mean ±SD, n =3. […] The compounds tested (JJMB5, JJMB6, JJMB7, and JJMB9) could efficiently kill several malignant cell-lines in concentration range of micromolars. (See Table 1). […] From these tests it is clear that the compounds affected several cells lines of the three major types of cancers: breast, lung, and colon. […]
(§1) Combination studies of bisamidoximes and cisplatin were performed on human breast cancer cell line MCF-7, human colon cancer cell line HCT-116, and murine mammary malignant cell lines measured by MTS assay. The cells were treated with novel bisamidoximes JJMB 5, 7, and 9, for 48 hours (72 hours for MCF-7), individually or in combination with cisplatin. Growth Inhibition (GI50) was measured. *—Indicates a significant difference when the drugs were used in combination with cisplatin compared to when the drugs were used individually as determined by one-way ANOVA, p≤0.05.

[2] = test system: MCF-7 (breast adenocarcinoma); assay: MTS growth inhibition assay, MCF-7; type: cell-based, human
Description: (§2) In Table 1, the various compounds listed were tested for induction of death in various malignant human cell lines and were compared to the commercial HAT inhibitor garcinol (0.2-500 μM). Specifically, Table 1 describes the summary of the growth inhibitory effect (in μM) of nine novel bisamidoximes on six malignant cell lines, as measured by MTS assay. MTS assay is a colorimetric based cytotoxicity assay that determines the number of viable cells. The numbers in the table represent Growth Inhibition GI50 (±standard deviation), which is the concentration of the drug where 50% of the cells are killed. Garcinol, a known HAT inhibitor, was used as a positive control. The cell lines used were: HCT-116 (colorectal carcinoma), DU-145 (prostate carcinoma), SK-OV-3 (ovarian adenocarcinoma), HLF-a (lung epidermoid carcinoma), MCF-7 & MDA-MB-231 (breast adenocarcinoma) and NHDF (normal human dermal fibroblasts). The cells were treated with compounds JJMB 1-9 for 48 hrs (MCF-7 for 72 hrs) at various concentrations ranging from 0.2 μM to 500 μM. One-way ANOVA was performed to assess the differences between the groups. Differences in means between control and treatment groups were analyzed by post-hoc Dunnett's test, p<0.05. Data is reported as the mean ±SD, n =3. […] The compounds tested (JJMB5, JJMB6, JJMB7, and JJMB9) could efficiently kill several malignant cell-lines in concentration range of micromolars. (See Table 1). […] From these tests it is clear that the compounds affected several cells lines of the three major types of cancers: breast, lung, and colon.
as §1, with “studies” for “studies of bisamidoximes and cisplatin were”, “MCF-7 and” for “MCF-7,”, “HCT 116 were” for “HCT-116, and murine mammary malignant cell lines”, “combination.” for “combination with cisplatin.”, “combination” for “combination with cisplatin”
as §1

[3] = test system: HLF-a (lung epidermoid carcinoma); assay: MTS growth inhibition assay, HLF-a; type: cell-based; details: Homo sapiens, 48 hrs, 0.2-500 μM, mean ±SD n=3, read-out: Growth Inhibition GI50 (±standard deviation), Lung (HLF-A)
Description: as §2

[4] = MTS growth inhibition assay, NHDF; type: cell-based; details: NHDF (normal human dermal fibroblasts), 0.2-500 μM, read-out: Growth Inhibition GI50 (±standard deviation), Normal (NHDF)
Description: as §2

[5] = test system: SK-OV-3 (ovarian adenocarcinoma); assay: MTS growth inhibition assay, SK-OV-3; type: cell-based; details: Homo sapiens, 48 hrs, 0.2-500 μM, mean ±SD n=3, read-out: Growth Inhibition GI50 (±standard deviation), Ovarian (SKOV-3)
Description: as §2

[6] = test system: MDA-MB-231 (breast adenocarcinoma); assay: MTS growth inhibition assay, MDA-MB-231; type: cell-based; details: Homo sapiens, 48 hrs, 0.2-500 μM, mean ±SD n=3, read-out: Growth Inhibition GI50 (±standard deviation), Breast (MDA-MB-231)
Description: as §2

[7] = test system: DU-145 (prostate carcinoma); assay: MTS growth inhibition assay, DU-145; type: cell-based; details: Homo sapiens, 48 hrs, 0.2-500 μM, mean ±SD n=3, read-out: Growth Inhibition GI50 (±standard deviation), Prostate (DU-145)
Description: as §2

[8] = test system: murine mammary carcinoma cells 4T1; assay: Growth inhibition of murine mammary cancer cell line 4T1; type: cell-based; details: Mus musculus; 4T1 cells, single drugs; read-out: growth inhibition 50% (GI50) on 4T1 cells
[9] = Maximum tolerated dose in mice, IP; details: mouse, in vivo, BALB/c strain, 5 consecutive days, two days break, another 5 days
Description: (§3) At the next stage, we needed to determine whether the mice would tolerate the drugs, or in other words, what would be the maximum tolerated dose (MTD) of each of the bisamidoximes. The three bisamidoximes JJMB5, JJMB7, and JJMB9, as well as a control group of only the vehicle (the solvent used to dissolve the drugs) were injected intraperitoneally (IP) to mice. The protocol included injection of the desired concentration of bisamidoxime over 5 consecutive days, two days of break, and another cycle of 5 successive days of injections.

[10] = test system: EpH4 cells; assay: Sensitivity of EpH4 cells to bisamidoximes; type: cell-based; details: in vitro cell culture
Description: The efficacy of killing malignant cells in mice and slowing down the tumors or eradicating them can be indicative to these compounds' efficacy in humans. To check if the bisamidoximes are potent in mice, breast cancer cells were identified that could be implanted in female mice mammary fat pads. The identified cells were tested to see if they are sensitive to bisamidoximes in vitro (in tube/cell culture).
as §3

[11] = test system: TSA-induced hyperacetylation; assay: Reversion of HDAC-inhibitor (TSA)-induced hyperacetylation; type: cell-based, human; details: HCT-116, listed as JJM6
Description: To further understand the mechanism of action of the four active compounds (JJMB5, JJMB6, JJMB7, and JJMB9), we performed several experiments that are summarized in Table 2. All the assays were performed on HCT-116 (a colorectal carcinoma), since all of the four specific potent drugs could induce death of these cells. […] Another HAT, GCN5, was not inhibited by any of the compounds. JJMB5, JJM6 and JJMB9 could reverse the activity of an HDAC inhibitor (TSA); thus the hyperacetylation induced by TSA could be reversed by these compounds.
This is another indication that the three compounds, JJMB5, JJMB6, and JJMB9 are HAT inhibitors.

[12] = test system: 4T1 breast carcinoma cells implanted in mammary fat pad; assay: 4T1 mammary carcinoma tumor volume in BALB/c mice; type: in vivo, mouse; details: 4T1 in mammary fat pad, two 5-day cycles
Description: The bisamidoxime JJMB7 was studied to see if the compound can lower the rate of tumor growth and the number and size of metastases in mice. […] FIG. 2 depicts a graph of mammary tumor volumes in JJMB7 treated and untreated control BALB/c mice. In the experiment, six-week-old BALB/c mice were implanted with 10,000 4T1 breast carcinoma cells in the mammary fat pad (MFP). […] JJMB7 was administered for five consecutive days, followed by a two day break, and another five consecutive days of injections. Mice were weighed every day and observed for signs of pain and discomfort. Tumors were visible 7 days after implantation, and tumor dimensions were measured, and volumes were calculated until day-24, when mice were euthanized. A One-Way Repeated Measures ANOVA was performed to determine a statistical significance (p≤0.05).
The murine mammary carcinoma 4T1 cells were implanted in the mammary fat pad of BALB/c female mice (10,000 cells per mice) and a day later we started a protocol of two 5-day cycles (with 2 days break) of chemotherapy delivered IP. The amidoximes were delivered at their MTD level—JJMB5 with 0.26 mg/kg, and JJMB9 with 0.78 mg/kg. One-Way Repeated-Measure ANNOVA was performed to show the significance (p≤0.05, n=10).

[13] = Mouse Liver Microsomes stability; type: in vitro ADME; details: Mouse Liver Microsomes (FIG. 5); read-out: t1/2 in Mouse Liver Microsomes
[14] = 48 hours, individually or in combination with cisplatin, read-out: Growth Inhibition (GI50), HCT-116, cisplatin combination study
[15] = Homo sapiens, HCT-116, 48 hrs, 0.2-500 μM, mean ±SD n=3, * = highly purified, more potent batches, read-out: Growth Inhibition GI50 (±standard deviation), Colon (HCT-116)
[16] = Homo sapiens, MCF7, 72 hours, 0.2-500 μM, mean ±SD n=3, * = highly purified, more potent batches, read-out: Growth Inhibition GI50 (±standard deviation), Breast (MCF-7), 72 hours
[17] = Homo sapiens, MCF7, 72 hours, individually or in combination with cisplatin, read-out: Growth Inhibition (GI50), MCF-7, cisplatin combination study
[18] = Homo sapiens, MCF7, 72 hours, individually or in combination, read-out: Growth Inhibition (GI50), MCF-7, bisamidoxime combination study

In the case of `N.N.[Cl][Pt][Cl]` [Cisplatin, cisplatin, reference compound], the GI50 [1, 14] is reported as 68.6 µM and 73 µM and 66.3 µM and the GI50 ([2]; 72 hours, individually or in combination with cisplatin, read-out: Growth Inhibition (GI50), MCF-7, cisplatin combination study) is reported as 40.8 µM and 48.5 µM.

In the case of `C=C(C)[C@@H](CC=C(C)C)C[C@@]12C[C@@H](CC=C(C)C)C(C)(C)[C@@](CC=C(C)C)(C(=O)C(C(=O)c3ccc(O)c(O)c3)=C1O)C2=O` [Garcinol, garcinol, reference compound], the GI50 [1, 15] is reported as 39 ± 8 µM, the GI50 [3] is reported as 27 ± 4 µM and the GI50 at 48 h [4] is reported as > 500 µM. For the same molecule, the GI50 [2, 16] was 55 ± 7 µM, the GI50 [5] was 43 ± 5 µM and the GI50 [6] was 44 ± 4 µM. The GI50 [7] was 55 ± 7 µM.

Molecule `Cc1ccc(/C(=N/O)NCCCN/C(=N\O)c2ccc(C)cc2)cc1` [JJMB5] has a GI50 [1, 14] of 19.3 ± 2.4 µM, a GI50 [1, 15] of 8.5 µM and a GI50 [3] of 335 ± 4 µM. For the same molecule, the GI50 [8] was 6.3 ± 2.3 µM, the GI50 at 48 h [4] was > 500 µM and the GI50 [2, 16] was 33.2 µM. For the same molecule, the GI50 [2, 17] was 33.2 ± 6 µM, the GI50 [2, 18] was 28.2 ± 7.1 µM and the GI50 [5] was > 500 µM. For the same molecule, the MTD [9] was 0.26 mg/kg, the GI50 [6] was 125 ± 4 µM and the GI50 [7] was > 500 µM. The “sensitivity of EpH4 cells to bisamidoximes” value (“sensitivity of EpH4 cells” for short) [10] was “highly sensitive”.

For `Cc1ccc(/C(=N/O)NCCCCN/C(=N\O)c2ccc(C)cc2)cc1` [JJMB6], the GI50 [1, 15] was 17 ± 4 µM, the GI50 [3] was > 500 µM and the “Reversion of HDAC-inhibitor-induced hyperacetylation” value [11] was “could reverse”. The GI50 at 48 h [4] was > 500 µM, the GI50 [2, 16] was > 500 µM and the GI50 [5] was > 500 µM. For the same molecule, the GI50 [6] was > 500 µM and the GI50 [7] was > 500 µM.

For `Cc1ccc(/C(=N/O)NCCN/C(=N\O)c2ccc(C)cc2)cc1` [JJMB7], the GI50 [1, 14] was 16.2 ± 2 µM, the GI50 [1, 15] was 6.2 µM and the GI50 [3] was 275 ± 3 µM. The GI50 [8] was 14.7 ± 6.3 µM, the GI50 at 48 h [4] was > 500 µM and the GI50 [2, 16] was > 500 µM. For the same molecule, the GI50 [5] was > 500 µM, the MTD [9] was 1.56 mg/kg and the GI50 [6] was 85 ± 3 µM. The GI50 [7] was > 500 µM, the “mammary carcinoma tumor volume (FIG. 2)” value ([12]; BALB/c mice, 1.56 mg/kg IP, until day-24) was “significantly reduce” and the “sensitivity of EpH4 cells” value [10] was “highly sensitive”.

Work on `Cc1ccc(/C(=N/O)NCCCN(C)CCCN/C(=N\O)c2ccc(C)cc2)cc1` [JJMB9] yielded a GI50 [1, 15] of 16 µM, a GI50 [3] of 40 ± 7 µM and a GI50 [8] of 33.3 ± 2.4 µM. The GI50 at 48 h [4] was > 500 µM, the GI50 [2, 16] was 8.5 µM and the GI50 [2, 17] was 8.5 ± 2.5 µM. The GI50 [2, 18] was 5.3 ± 2.7 µM, the GI50 [5] was > 500 µM and the MTD [9] was 0.78 mg/kg. The GI50 [6] was > 500 µM, the GI50 [7] was > 500 µM and the “breast cancer tumor volume (FIG. 3)” value ([12]; BALB/c female mice, 0.78 mg/kg IP, p≤0.05, n=10) was “significantly reduced”. For the same molecule, the half-life [13] was 13 min and the “sensitivity of EpH4 cells” value [10] was “highly sensitive”.
